Measurements from patent publication US6608078B2, “Antibacterial chiral 8-(substituted piperidino)-benzo [i,j] quinolizines, processes, compositions and methods of treatment” (Wockhardt Limited, priority 2000, dated 2003).
Values after ≈ are worked out from the molar mass of the structure shown.

Experiments:
Assay type in all cases: cell-based
E. coli = assay: In-vitro antimicrobial test (MIC, NCCLS protocol); conditions: standard NCCLS protocol
From the text: (§1) The activity of the compounds of the invention in-vitro can be illustrated as follows:
(§2) The test method was in accordance with the standard NCCLS protocol.

MRSA = assay: In-vitro antimicrobial test (MIC, NCCLS protocol); conditions: standard NCCLS protocol
From the text: as §1, §2

P. aeruginosa = assay: In-vitro antimicrobial test (MIC, NCCLS protocol); conditions: standard NCCLS protocol
From the text: as §1, §2

S. pneumoniae = assay: In-vitro antimicrobial test (MIC, NCCLS protocol); conditions: standard NCCLS protocol
From the text: as §1, §2

VRE = assay: In-vitro antimicrobial test (MIC, NCCLS protocol); conditions: standard NCCLS protocol
From the text: as §1, §2

S. pneumoniae ATCC 6303 = assay: % Killing of Streptococci at 4 MIC, 8 hrs
From the text: (§3) Comparison of a typical compound of the invention vs S-(−)-9-fluoro-8-(4′-hydroxypiperidin-1-yl)-5-methyl-6,7-dihydro-1-oxo-1H-5H-benzo[i,j]quinolizine-2-carboxylic acid in terms of % Killing of Streptococci
(§4) As against this, a typical compound of the invention, which has an improved bactericidal power againt streptococci, consistently brings about killing of 99% of streptococcal population.

S. pyogenes ATCC 25147 = assay: % Killing of Streptococci at 4 MIC, 8 hrs
From the text: as §3, §4

S. salivarius ATCC 13419 = assay: % Killing of Streptococci at 4 MIC, 8 hrs
From the text: as §3, §4

S. sanguis ATCC 10556 = assay: % Killing of Streptococci at 4 MIC, 8 hrs
From the text: as §3, §4

streptococcal population = assay: % Killing of Streptococci, summary over strains; conditions: exposed to 4×MIC concentrations for 8 hours; depending upon the streptococcal strain
From the text: as §3, §4

| SMILES | MIC (E. coli) [µg/mL] | MIC (MRSA) [µg/mL] | MIC (P. aeruginosa) [µg/mL] | MIC (S. pneumoniae) [µg/mL] | MIC (VRE) [µg/mL] | 4 MIC-% Kill at 8 hrs. (S. pneumoniae ATCC 6303) [%] | 4 MIC-% Kill at 8 hrs. (S. pyogenes ATCC 25147) [%] | 4 MIC-% Kill at 8 hrs. (S. salivarius ATCC 13419) [%] | 4 MIC-% Kill at 8 hrs. (S. sanguis ATCC 10556) [%] | killing of streptococcal population (streptococcal population) [%] |
| --- | --- | --- | --- | --- | --- | --- | --- | --- | --- | --- |
| CC1CN(c2c(F)cc3c(=O)c(C(=O)O)cn4c3c2CC[C@@H]4C)CCC1O (mixture of isomers) [Compound A, S-(−)-9-fluoro-6,7-dihydro-8-{trans-4-(RS)-hydroxy-3-(RS)-methylpiperidin-1-yl}-5-methyl-1-oxo-1H,5H-benzo[i,j]quinolizine-2-carboxylic acid] | 0.2 (≈ 0.534 µM) | 0.4 (≈ 1.07 µM) | 3.12 (≈ 8.33 µM) | 0.2 (≈ 0.534 µM) | 6.25 (≈ 16.7 µM) | – | – | – | – | – |
| CC1CN(c2c(F)cc3c(=O)c(C(=O)O)cn4c3c2CC[C@@H]4C)CCC1O (mixture of isomers) [Compound B] | 0.2 (≈ 0.534 µM) | 0.8 (≈ 2.14 µM) | 6.25 (≈ 16.7 µM) | 0.2 (≈ 0.534 µM) | 6.25 (≈ 16.7 µM) | – | – | – | – | – |
| CC1CCc2c(N3CCC(O)CC3)c(F)cc3c(=O)c(C(=O)O)cn1c23 (racemic) [Ref. 1, RS(±)-9-fluoro-8-(4′-hydroxypiperidin-1-yl)-5-methyl-6,7-dihydro-1-oxo-1H-5H-benzo[i,j]quinolizine-2-carboxylic acid, reference compound] | 0.4 (≈ 1.11 µM) | 1.56 (≈ 4.33 µM) | 6.25 (≈ 17.3 µM) | 0.4 (≈ 1.11 µM) | 12.5 (≈ 34.7 µM) | – | – | – | – | – |
| C[C@H]1CN(c2c(F)cc3c(=O)c(C(=O)O)cn4c3c2CC[C@@H]4C)CC[C@H]1O (relative stereo) [Compound C, S-(−)-9-fluoro-6,7-dihydro-8-{cis-(−)-4-R-hydroxy-3-S-methylpiperidin-1-yl}-5-methyl-1-oxo-1H,5H-benzo[i,j]quinolizine-2-carboxylic acid] | 0.1 (≈ 0.267 µM) | 0.8 (≈ 2.14 µM) | 6.25 (≈ 16.7 µM) | 0.1 (≈ 0.267 µM) | 6.25 (≈ 16.7 µM) | – | – | – | – | – |
| C[C@@H]1CN(c2c(F)cc3c(=O)c(C(=O)O)cn4c3c2CC[C@@H]4C)CC[C@@H]1O (relative stereo) [Compound D, S-(−)-9-fluoro-6,7-dihydro-8-{cis-(+)-4-S-hydroxy-3-R-methylpiperidin-1-yl}-5-methyl-1-oxo-1H,5H-benzo[i,j]quinolizine-2-carboxylic acid] | 0.2 (≈ 0.534 µM) | 0.8 (≈ 2.14 µM) | 6.25 (≈ 16.7 µM) | 0.8 (≈ 2.14 µM) | 6.25 (≈ 16.7 µM) | – | – | – | – | – |
| CCC1CN(c2c(F)cc3c(=O)c(C(=O)O)cn4c3c2CC[C@@H]4C)CCC1O (stereo partly drawn) [Compound E, S-(−)-9-fluoro-6,7-dihydro-8-(3-ethyl-4-hydroxypiperidin-1-yl)-5-methyl-1-oxo-1H,5H-benzo[i,j]quinolizine-2-carboxylic acid] | 0.8 (≈ 2.06 µM) | 1.56 (≈ 4.02 µM) | >12.5 | 0.2 (≈ 0.515 µM) | 12.5 (≈ 32.2 µM) | – | – | – | – | – |
| C[C@H]1CCc2c(N3CCC(O)CC3)c(F)cc3c(=O)c(C(=O)O)cn1c23 [Ref. 2, S-(−)-9-fluoro-8-(4′-hydroxypiperidin-1-yl)-5-methyl-6,7-dihydro-1-oxo-1H-5H-benzo[i,j]quinolizine-2-carboxylic acid, reference compound] | 0.2 (≈ 0.555 µM) | 0.8 (≈ 2.22 µM) | 3.12 (≈ 8.66 µM) | 0.2 (≈ 0.555 µM) | 6.25 (≈ 17.3 µM) | 50 | 45.4 | 0 | 40 | ≤ 50 |
| CC1CN(c2c(F)cc3c(=O)c(C(=O)O)cn4c3c2CC[C@@H]4C)CCC1O (stereo partly drawn) [Typical compound of the invention, S-(-)-9-fluoro-6,7-dihydro-8-(4-hydroxy-3-methylpiperidin-1-yl)-5-methyl-1-oxo-1H,5H-benzo[i,j]quinolizine-2-carboxylic acid] | – | – | – | – | – | 99.8 | 98.4 | 99.7 | 98.6 | 99 |
